{"source": "patent US9885727B2", "about": "“Cell culture models for validating candidate compounds for use in treating COPD and other diseases” (THE TRUSTEES OF COLUMBIA UNIVERSITY IN THE CITY OF NEW YORK, priority 2010, dated 2018)", "key": {"[1]": {"system": "neutrophils and macrophages", "conditions": "cited from earlier work"}, "[2]": {"system": "pro-MMP1 and pro-MMP3", "conditions": "cited from earlier work"}, "[3]": {"test": "Stability of DES and IDS on acid hydrolysis (6N HCl, 110° C., 24 hrs), LC/MSMS", "conditions": "for Recovered, mean: 6N HCl at 110° C. for 24 hour; for stability through acid hydrolysis: 10, 5 and 1 ng/ml, HCl hydrolysis at 110° C. for 24 hrs", "method": "The assay of total DES and IDS in biological fluids requires HCl hydrolysis at 110° C. to release DES and IDS from their crosslinked or peptide conjugates. We examined the stability of DES and IDS in three different concentrations (10, 5, and 1 ng/ml) during HCl hydrolysis at 110° C. for 24 hrs. The DES/IDS solutions resulting from the HCl treatment were subjected to LC/MSMS measurements of DES and IDS, which were compared with the measurements of the same concentrations of untreated DES and IDS to calculate the recovery by the acid treatment."}, "[4]": {"system": "elastases, including human metalloproteinase 12", "conditions": "cited from earlier work"}, "[5]": {"system": "smoke-induced elastic fiber injury", "test": "Mouse model of smoke-induced pulmonary emphysema: DID in BALF and whole lungs", "format": "in vivo, DBA/2J mice", "method": "(§1) Eight-week-old female DBA/2J mice (The Jackson Laboratory, Bar Harbor, Me.) were divided into two treatment groups as follows: Group 1 was treated with aerosolized HA, beginning 1 month following initiation of smoke exposure; Group 2 was treated with aerosolized water, beginning 1 month following initiation of smoke exposure. Groups 1 and 2 were exposed to smoke for 3 h per day, 5 days/week, for a period of 10 months. Group 1 was treated with a 0.1% solution of HA in water for 1 h prior to each smoking session. Group 2 received aerosolized water for a similar interval. At various intervals following initial smoke exposure, animals were euthanized to determine (1) DID content in bronchoalveolar lavage fluid (BALF) and whole lungs at 2, 4, 6, 8, and 10 months; (2) lung histopathology at 3, 6, and 10 months; and (3) airspace enlargement as measured by the mean linear intercept (MLI) at 3 months.\nFollowing administration of either aerosolized HA or water, the nebulizer was disconnected and the smoking machine (Model TE-10, Teague Enterprises, Davis, Calif.) was attached to the exposure chamber. Both treatment groups were exposed to cigarette smoke for a period of 3 h/day, 5 days/week. The smoking machine simultaneously burned two filtered research-grade cigarettes (type 2R4F, University of Kentucky). Each cigarette was puffed once per minute for 2 s at a flow rate of 1.05 LPM, yielding 35 cc of smoke. This cycle was repeated nine times before ejecting the cigarette and loading a new one. Proper flow rate was maintained by a vacuum pump that established negative pressure at the exhaust port.\nBeginning 1 month following initial smoke exposure, Group 1 was administered a 0.1% solution of low-molecular-weight (150 kDa) streptococcal HA in water (Bayer, Shawnee, Kans.), using a Misty-Ox nebulizer (Vital Signs, Totowa, N.J.). Group 2 received aerosolized water alone. The nebulizer was connected to a heavy-duty air compressor that delivered a constant pressure of 30 psi. The aerosol entered the exposure chamber through an inflow port attached to the roof and was drawn through the chamber by negative pressure created by a vacuum pump connected to an exhaust port on the side wall. The chamber was large enough (28×19×15 in.) to permit the mice to remain in their cages while inhaling the aerosol, thereby minimizing direct handling of the animals.\nThe levels of the elastin-specific crosslinking amino acids, DID, were measured in both BALF and whole-lung tissues. Animals were asphyxiated with CO2 and their lungs were lavaged three times with 1-ml aliquots of Hanks' solution. Both cell-free lavage fluids and homogenized lung tissues were then hydrolyzed in 6 N HCl at 110° C. for 24 h, and the hydrolysates were filtered and evaporated to remove acid. DID were quantified by high-performance liquid chromatography and electrospray ionization mass spectrometry according to previously published procedures^11."}, "[6]": {"system": "smoke-induced airspace enlargement", "format": "in vivo, DBA/2J mice", "method": "as §1, with “3 months. […]” for “3 months.”\nAt 3, 6, and 10 months following initiation of smoke exposure, mice were asphyxiated with CO2 and their lungs were inflated in situ with 10% neutral-buffered formalin at a constant pressure of 20 cm H2O. […] Slide sections stained with hematoxylin and eosin were examined with the light microscope to determine histological changes and to quantify airspace diameter by the mean linear intercept method^16. […]"}, "[7]": {"system": "smoke-induced elastic fiber injury", "conditions": "concurrent administration, within 3 months of smoke exposure; cited from earlier work"}, "[8]": {"system": "elastase-induced airspace enlargement", "conditions": "aerosol of 0.1% HA in water for 50 min prior to elastase; cited from earlier work"}, "[9]": {"system": "COPD patients", "test": "Spirometry in post-TIO therapy patients", "format": "in vivo, human", "conditions": "most post-TIO therapy patients", "description": "The improvement in spirometric indices were usually concordant with levels of D/I in patients."}, "[10]": {"system": "COPD patients", "test": "Tiotropium treatment of COPD patients: D/I in plasma, urine and sputum by LC/MS", "format": "in vivo, human", "method": "COPD patients have elevated levels of D/I in plasma, urine and sputum, which might respond to prolonged bronchodilation. To determine if clinical effects of Tiotropium (TIO) affect tissue degradation of the lung in COPD, clinically stable patients with COPD (n=9) not on TIO prior to the study and at one month and a second month after initiating therapy were tested. Other anticholinergic bronchodilators were stopped prior to TIO, and other therapies/disease treatments were unchanged for the two months of study. To these patients, 18 mcg TIO was administered each 24 hours. D/I in plasma, urine and sputum were measured by liquid chromatography and mass spectrometry (LC/MS) prior to the study and at one month and two months after the study."}, "[11]": {"conditions": "COPD patients, 18 mcg TIO each 24 hours, up to two months"}}}
{"compound": "VGVAPG (Human) [elastin-derived hexapeptide isolated from ligamentum nuchae or aorta by porcine pancreatic elastase]", "values": [{"measurement": "chemoattractant activity", "setting": "[1]", "value": "chemoattractants for neutrophils and macrophages"}, {"measurement": "pro-MMP1 and pro-MMP3 upregulation", "setting": "[2]", "value": "induce pro-MMP1 and pro-MMP3 upregulation"}]}
{"compound": "NC(CCCC[n+]1cc(CCC(N)C(=O)O)c(CCCC(N)C(=O)O)c(CCC(N)C(=O)O)c1)C(=O)O", "note": "(stereo not drawn) [DES, Desmosine]", "values": [{"measurement": "Recovered, mean", "setting": "[3]; 1 ng/ml DES/IDS", "value": 0.50, "unit": "ng/mL"}, {"measurement": "Recovered, mean", "setting": "[3]; 5 ng/ml DES/IDS", "value": 2.42, "unit": "ng/mL"}, {"measurement": "Recovered, mean", "setting": "[3]; 10 ng/ml DES/IDS", "value": 5.04, "unit": "ng/mL"}, {"measurement": "stability through acid hydrolysis", "setting": "[3]", "value": "stable through acid hydrolysis"}]}
{"compound": "hyaluronan [HA]", "values": [{"measurement": "direct inhibition of elastases", "setting": "[4]", "value": "does not directly inhibit elastases"}, {"measurement": "elastolysis of elastic fibers with bound HA", "setting": "[4]; in vitro, several types of elastase including human metalloproteinase 12", "value": "prevented elastolysis"}, {"measurement": "difference in BALF DID, HA/Smoke vs Smoke-Only", "setting": "[5]; 2 and 4 months of smoke exposure", "value": "not statistically significant"}, {"measurement": "BALF DID, level before the drop", "setting": "[5]; HA/Smoke group, 0.1% aerosolized HA begun 1 month after start of smoke", "value": 0.8, "unit": "ng/mL"}, {"measurement": "BALF DID, level after the drop", "setting": "[5]; HA/Smoke group, after 4 months of smoke exposure", "value": "less than 1 pg/ml"}, {"measurement": "BALF DID, HA-treated vs Smoke-Only", "setting": "[5]; subsequent measurements (after 4 months)", "value": "significantly lower levels"}, {"measurement": "difference in lung DID, HA/Smoke vs Smoke-Only", "setting": "[5]; whole lungs, 10-month period", "value": "not statistically significant"}, {"measurement": "mean linear intercept (MLI)", "setting": "[6]; 3 months of smoke, HA treated for 2 months, smoke alone 58.4 μm, p<0.01", "value": 42.6, "unit": "μm"}, {"measurement": "inflammatory response beyond that induced by smoke exposure", "setting": "[6]; mouse, in vivo", "value": "no evidence of an inflammatory response"}, {"measurement": "BALF DID levels", "setting": "[7]", "value": "significantly reduced"}, {"measurement": "airspace enlargement vs aerosolized water and elastase", "setting": "[8]", "value": "significantly less airspace enlargement"}]}
{"compound": "C[N+]1(C)[C@@H]2C[C@@H](OC(=O)C(O)(c3cccs3)c3cccs3)C[C@H]1[C@@H]1O[C@@H]12", "note": "[TIO, Tiotropium]", "values": [{"measurement": "FVC, FEV1 and ratio of FEV1/FVC", "setting": "[9]", "value": "significant increase"}, {"measurement": "Residual Volume (RV)", "setting": "[9]", "value": "decreases"}, {"measurement": "patients with significant decrease in D/I levels in plasma", "setting": "[10]; [11]", "value": "10 out of 12"}, {"measurement": "patients with significant decrease in D/I levels in sputum", "setting": "[10]; [11]", "value": "all 12 patients"}, {"measurement": "patients with significant decrease in D/I levels in urine", "setting": "[10]; [11]", "value": "10 out of 12"}, {"measurement": "D/I levels in plasma, urine and sputum", "setting": "[10]; two months of treatment with TIO", "value": "significant reductions"}]}
{"compound": "NC(CCCC[n+]1cc(CCC(N)C(=O)O)cc(CCC(N)C(=O)O)c1CCCC(N)C(=O)O)C(=O)O", "note": "(stereo not drawn) [IDS, Isodesmosine]", "values": [{"measurement": "Recovered, mean", "setting": "[3]; 1 ng/ml DES/IDS", "value": 0.48, "unit": "ng/mL"}, {"measurement": "Recovered, mean", "setting": "[3]; 5 ng/ml DES/IDS", "value": 2.55, "unit": "ng/mL"}, {"measurement": "Recovered, mean", "setting": "[3]; 10 ng/ml DES/IDS", "value": 5.37, "unit": "ng/mL"}, {"measurement": "stability through acid hydrolysis", "setting": "[3]", "value": "stable through acid hydrolysis"}]}
